Publication PMC9316855 (Molecules, 2022)

Key:
[1] = in vitro; conditions: rat, serum, pH 7.4
[2] = 24 h
[3] = 48 h

Row | SMILES | remaining at 24 h [1] [%] | remaining at 48 h [1] [%] | peptide remaining intact in human plasma [2] | peptide remaining intact in rat serum [3] [%]
1 | CC(C)C[C@H](NC(=O)[C@H](CC(=O)O)NC(=O)CNC(=O)[C@H](CCCNC(=N)N)NC(=O)[C@H](CC(C)C)NC(=O)[C@H](CC(N)=O)NC(=O)[C@@H]1CCCN1C(=O)[C@@H](NC(=O)[C@H](C)NC(=O)[C@H](CC(N)=O)NC(=O)CCOCCOCCOCCOCCOCCOCCOCCOCCOCCOCCOCCOCCOCCOCCOCCOCCOCCOCCOCCOCCN)C(C)C)C(=O)N[C@@H](CCC(N)=O)C(=O)N[C@H](C(=O)N[C@@H](CC(C)C)C(=O)N[C@@H](C)C(=O)N[C@@H](CCC(N)=O)C(=O)N[C@@H](CCCCN)C(=O)N[C@H](C(=O)N[C@@H](C)C(=O)N[C@@H](CCCNC(=N)N)C(=O)N[C@H](C(=O)O)[C@@H](C)O)C(C)C)C(C)C [Compound 23] | ~90 | > 70 | – | –
2 | CC(C)C[C@H](NC(=O)[C@H](CC(=O)O)NC(=O)CNC(=O)[C@H](CCCNC(=N)N)NC(=O)[C@H](CC(C)C)NC(=O)[C@H](CC(N)=O)NC(=O)[C@@H]1CCCN1C(=O)[C@@H](NC(=O)[C@H](CCCCNC(=O)CCCC[C@@H]1SC[C@@H]2NC(=O)N[C@@H]21)NC(=O)[C@H](CC(N)=O)NC(=O)CCOCCOCCOCCOCCOCCOCCOCCOCCOCCOCCOCCOCCOCCOCCOCCOCCOCCOCCOCCOCCNC(=O)CN(CCN(CCN(CC(=O)O)CC(=O)O)CC(=O)O)CC(=O)O)C(C)C)C(=O)N[C@@H](CCC(N)=O)C(=O)N[C@H](C(=O)N[C@@H](CC(C)C)C(=O)N[C@@H](C)C(=O)N[C@@H](CCC(N)=O)C(=O)N[C@@H](CCCCN)C(=O)N[C@H](C(=O)N[C@@H](C)C(=O)N[C@@H](CCCNC(=N)N)C(=O)N[C@H](C(=O)O)[C@@H](C)O)C(C)C)C(C)C [Compound 30] | – | – | around 80% | –
3 | CC(C)C[C@H](NC(=O)[C@H](CC(=O)O)NC(=O)CNC(=O)[C@H](CCCNC(=N)N)NC(=O)[C@H](CC(C)C)NC(=O)[C@H](CC(N)=O)NC(=O)[C@@H]1CCCN1C(=O)[C@@H](NC(=O)[C@H](C)NC(=O)[C@H](CC(N)=O)NC(=O)CCOCCOCCOCCOCCOCCN)C(C)C)C(=O)N[C@@H](CCC(N)=O)C(=O)N[C@H](C(=O)N[C@@H](CC(C)C)C(=O)N[C@@H](C)C(=O)N[C@@H](CCC(N)=O)C(=O)N[C@@H](CCCCN)C(=O)N[C@H](C(=O)N[C@@H](C)C(=O)N[C@@H](CCCNC(=N)N)C(=O)N[C@H](C(=O)O)[C@@H](C)O)C(C)C)C(C)C [Compound 20] | ~60 | ~40 | – | –
4 | CC(C)C[C@H](NC(=O)[C@H](CC(=O)O)NC(=O)CNC(=O)[C@H](CCCNC(=N)N)NC(=O)[C@H](CC(C)C)NC(=O)[C@H](CC(N)=O)NC(=O)[C@@H]1CCCN1C(=O)[C@@H](NC(=O)[C@H](CCCCNC(=O)CCCC[C@@H]1SC[C@@H]2NC(=O)N[C@@H]21)NC(=O)[C@H](CC(N)=O)NC(=O)COCCOCCNC(=O)CN(CCN(CCN(CC(=O)O)CC(=O)O)CC(=O)O)CC(=O)O)C(C)C)C(=O)N[C@@H](CCC(N)=O)C(=O)N[C@H](C(=O)N[C@@H](CC(C)C)C(=O)N[C@@H](C)C(=O)N[C@@H](CCC(N)=O)C(=O)N[C@@H](CCCCN)C(=O)N[C@H](C(=O)N[C@@H](C)C(=O)N[C@@H](CCCNC(=N)N)C(=O)N[C@H](C(=O)O)[C@@H](C)O)C(C)C)C(C)C [Compound 25] | – | – | around 80% | –
5 | CC(C)C[C@H](NC(=O)[C@H](CC(=O)O)NC(=O)CNC(=O)[C@H](CCCNC(=N)N)NC(=O)[C@H](CC(C)C)NC(=O)[C@H](CC(N)=O)NC(=O)[C@@H]1CCCN1C(=O)[C@@H](NC(=O)[C@H](C)NC(=O)[C@H](CC(N)=O)NC(=O)COCCOCCOCCOCCOCCN)C(C)C)C(=O)N[C@@H](CCC(N)=O)C(=O)N[C@H](C(=O)N[C@@H](CC(C)C)C(=O)N[C@@H](C)C(=O)N[C@@H](CCC(N)=O)C(=O)N[C@@H](CCCCN)C(=O)N[C@H](C(=O)N[C@@H](C)C(=O)N[C@@H](CCCNC(=N)N)C(=O)N[C@H](C(=O)O)[C@@H](C)O)C(C)C)C(C)C [Compound 18] | ~60 | ~40 | – | –
6 | CC(C)C[C@H](NC(=O)[C@H](CC(=O)O)NC(=O)CNC(=O)[C@H](CCCNC(=N)N)NC(=O)[C@H](CC(C)C)NC(=O)[C@H](CC(N)=O)NC(=O)[C@@H]1CCCN1C(=O)[C@@H](NC(=O)[C@H](C)NC(=O)[C@H](CC(N)=O)NC(=O)COCCOCCOCCOCCOCCOCCOCCOCCN)C(C)C)C(=O)N[C@@H](CCC(N)=O)C(=O)N[C@H](C(=O)N[C@@H](CC(C)C)C(=O)N[C@@H](C)C(=O)N[C@@H](CCC(N)=O)C(=O)N[C@@H](CCCCN)C(=O)N[C@H](C(=O)N[C@@H](C)C(=O)N[C@@H](CCCNC(=N)N)C(=O)N[C@H](C(=O)O)[C@@H](C)O)C(C)C)C(C)C [Compound 19] | > 70 | – | – | > 58
